Data reported in ChEMBL document CHEMBL1697781, “Assessment of the health effects of chemicals in humans: II. Construction of an adverse effects database for QSAR modeling” (Curr Drug Discov Technol, 2004).

Columns and labels:
Conditions in all cases: human; call rule not given here
Hepatotoxicity [1] = experiment: FDA HLAED, liver enzyme composite activity
Hepatotoxicity [2] = experiment: FDA HLAED, gamma-glutamyl transferase (GGT) increase
Hepatotoxicity [3] = experiment: FDA HLAED, lactate dehydrogenase (LDH) increase
Hepatotoxicity [4] = experiment: FDA HLAED, serum glutamic pyruvic transaminase (SGPT) increase
Hepatotoxicity [5] = experiment: FDA HLAED, serum glutamic oxaloacetic transaminase (SGOT) increase
Hepatotoxicity [6] = experiment: FDA HLAED, alkaline phosphatase increase
For GGT Increase - Index Value in this document: reference of the scale not given here.
For LDH Increase - Index Value in this document: reference of the scale not given here.

| SMILES | Composite Activity - Active (Hepatotoxicity [1]) | Composite Activity - Marginal (Hepatotoxicity [1]) | Composite Activity - Score (Hepatotoxicity [1]) | GGT Increase - Activity Score (Hepatotoxicity [2]) | GGT Increase - Index Value (Hepatotoxicity [2]) | GGT Increase - Number of Reports (Hepatotoxicity [2]) | LDH Increase - Activity Score (Hepatotoxicity [3]) | LDH Increase - Index Value (Hepatotoxicity [3]) | LDH Increase - Number of Reports (Hepatotoxicity [3]) | SGPT Increase - Activity Score (Hepatotoxicity [4]) | SGPT Increase - Index Value (Hepatotoxicity [4]) | SGPT Increase - Number of Reports (Hepatotoxicity [4]) | SGOT Increase - Activity Score (Hepatotoxicity [5]) | SGOT Increase - Index Value (Hepatotoxicity [5]) | SGOT Increase - Number of Reports (Hepatotoxicity [5]) | Alkaline Phosphatase Increase - Activity Score (Hepatotoxicity [6]) | Alkaline Phosphatase Increase - Index Value (Hepatotoxicity [6]) | Alkaline Phosphatase Increase - Number of Reports (Hepatotoxicity [6]) |
| --- | --- | --- | --- | --- | --- | --- | --- | --- | --- | --- | --- | --- | --- | --- | --- | --- | --- | --- |
| COc1ccccc1OCCNCC(O)COc1cccc2[nH]c3ccccc3c12 (stereo unspecified) [CARVEDILOL] | 0 | 0 | Inactive | Inactive | 0 | < 4 | Inactive | 0 | < 4 | Inactive | 0 | < 4 | Inactive | 0 | < 4 | Inactive | 0 | < 4 |
| CN1C(=O)OC(C)(C)C1=O [TRIMETHADIONE] | 2 | 3 | Active | Marginally Active | No Shipping Units | >= 4 | Marginally Active | No Shipping Units | >= 4 | Marginally Active | No Shipping Units | >= 4 | Active | No Shipping Units | >= 4 | Active | No Shipping Units | >= 4 |
| Cc1nc2n(c(=O)c1CCN1CCC(c3noc4cc(F)ccc34)CC1)CCCC2 [RISPERIDONE] | 2 | 0 | Active | Inactive | 1.6 | >= 4 | Inactive | 0.9 | >= 4 | Active | 4.9 | >= 4 | Active | 4.8 | >= 4 | Inactive | 1.6 | >= 4 |
| CCN1CCN(C(=O)N[C@@H](C(=O)N[C@@H]2C(=O)N3[C@@H]2SC(C)(C)[C@@H]3C(=O)O)c2ccccc2)C(=O)C1=O [PIPERACILLIN] | 0 | 0 | Inactive | Inactive | 0 | < 4 | Inactive | 0 | < 4 | Inactive | 0 | < 4 | Inactive | 0.3 | < 4 | Inactive | 0.3 | < 4 |
| COc1c(C)c2c(c(O)c1C/C=C(\C)CCC(=O)O)C(=O)OC2 [MYCOPHENOLIC ACID] | 1 | 0 | Inactive | Inactive | 3.8 | < 4 | Inactive | 1.9 | < 4 | Active | 9.6 | >= 4 | Inactive | 3.8 | < 4 | Inactive | 5.7 | < 4 |
| COc1cc2nc(N3CCN(C(=O)C4CCCO4)CC3)nc(N)c2cc1OC (stereo unspecified) [TERAZOSIN] | 0 | 0 | Inactive | Inactive | 0.8 | < 4 | Inactive | 0.5 | < 4 | Inactive | 1.3 | >= 4 | Inactive | 1.6 | >= 4 | Inactive | 0.5 | < 4 |
| CCCCCCC(=O)O[C@H]1CC[C@H]2[C@@H]3CCC4=CC(=O)CC[C@]4(C)[C@H]3CC[C@]12C [TESTOSTERONE ENANTHATE] | 0 | 0 | Inactive | Inactive | 4.8 | < 4 | Inactive | 2.4 | < 4 | Inactive | 7.2 | < 4 | Inactive | 4.8 | < 4 | Inactive | 0 | < 4 |
| CN(Cc1ccc(C(C)(C)C)cc1)Cc1cccc2ccccc12 [BUTENAFINE] | 0 | 0 | Inactive | Inactive | 0 | < 4 | Inactive | 0 | < 4 | Inactive | 0 | < 4 | Inactive | 0 | < 4 | Inactive | 0 | < 4 |
| CC(C)C(=O)Nc1ccc([N+](=O)[O-])c(C(F)(F)F)c1 [FLUTAMIDE] | 5 | 0 | Active | Active | 6.7 | >= 4 | Active | 8.4 | >= 4 | Active | 20.2 | >= 4 | Active | 22.4 | >= 4 | Active | 16.8 | >= 4 |
| Nc1ccn(C[C@@H](CO)OCP(=O)(O)O)c(=O)n1.O.O [CIDOFOVIR] | 1 | 0 | Inactive | Inactive | 0 | < 4 | Inactive | 46.1 | < 4 | Inactive | 0 | < 4 | Inactive | 46.1 | < 4 | Active | 92.2 | < 4 |
| O=C1C(O)=C([C@H]2CC[C@H](c3ccc(Cl)cc3)CC2)C(=O)c2ccccc21 [ATOVAQUONE] | 0 | 0 | Inactive | Inactive | 0 | < 4 | Inactive | 9.1 | < 4 | Inactive | 18.2 | < 4 | Inactive | 18.2 | < 4 | Inactive | 0 | < 4 |
| Nc1ncnc2c1ncn2[C@@H]1O[C@H](CO)[C@@H](O)[C@H]1O [ADENOSINE] | 0 | 0 | Inactive | Inactive | 0 | < 4 | Inactive | 0 | < 4 | Inactive | 0 | < 4 | Inactive | 0 | < 4 | Inactive | 0 | < 4 |
